Reference: US20250163104A1, “MACROCYCLIC IMMUNOMODULATORS” (priority 2021, published 2025)
Where a SMILES comes first, the peptide text is derived from it. Bridges are numbered along the chain shown (N, C = ends). [ ]: non-standard residue; d: D form. The star is where a group is joined. ξ: configuration not given here. Phe(4-COOH) = N[C@@H](Cc1ccc(C(=O)O)cc1)C(=O)O; Bip = N[C@@H](Cc1ccc(-c2ccccc2)cc1)C(=O)O; Phe(3-Me) = Cc1cccc(C[C@H](N)C(=O)O)c1; Val(3-OH) = CC(C)(O)[C@H](N)C(=O)O; 4Pal = N[C@@H](Cc1ccncc1)C(=O)O; Cha = N[C@@H](CC1CCCCC1)C(=O)O; Cit = NC(=O)NCCC[C@H](N)C(=O)O; Ile(3ξ) = CCC(C)[C@H](N)C(=O)O; Thr(3ξ) = CC(O)[C@H](N)C(=O)O; Carboxymethyl = O=C(O)C*; Nle = CCCC[C@H](N)C(=O)O; Orn = NCCC[C@H](N)C(=O)O; Pra = C#CC[C@H](N)C(=O)O; Dab = NCC[C@H](N)C(=O)O; Dap = NC[C@H](N)C(=O)O; Propargyl = C#CC*; CF3 = FC(F)(F)*

molecular target: T1, human PD-1 / PD-L1-Ig binding on Jurkat cell line over-expressing human PD-1 (Jurkat-PD-1) (Homo sapiens, UniProt Q15116); test: Jurkat-PD-1 Cell Binding High-Content Screening Assay (CBA); assay type: cell-based; conditions: Jurkat-PD-1 cells, PE-labeled PD-L1-Ig 20 nM final; read-out: Jurkat HPD1_PDL1 IC50
T1 construct: expressed in transfected cells; host or cells: Jurkat
Procedure, shortened: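 Compounds were preincubated with Jurkat-hPD-1 cells in DMEM plus 10% fetal calf serum for 2 h at 37° C. Phycoerythrin-labeled PD-L1-Ig (20 nM final) was then added for 1 hour. Cells were fixed in 4% paraformaldehyde with Hoechst 33342, and bound fluorescence was quantified by high-content imaging.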

T1 sequence (Q15116 25-288): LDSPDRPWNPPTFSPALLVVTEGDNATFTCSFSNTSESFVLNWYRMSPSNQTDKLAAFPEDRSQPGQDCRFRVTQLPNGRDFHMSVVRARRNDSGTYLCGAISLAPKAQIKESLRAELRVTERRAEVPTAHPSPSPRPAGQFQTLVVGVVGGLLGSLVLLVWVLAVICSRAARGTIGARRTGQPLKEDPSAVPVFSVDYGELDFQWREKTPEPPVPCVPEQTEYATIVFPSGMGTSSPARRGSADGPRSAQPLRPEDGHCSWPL

SMILES	IC50
CCCC[C@@H]1NC(=O)[C@H](CCN)NC(=O)[C@@H](CC(C)C)NC(=O)[C@H](CCCN)NC(=O)[C@H](CCCNC(N)=O)NC(=O)[C@H](Cc2ccc(-c3ccccc3)cc2)NC(=O)[C@H](C(C)C)NC(=O)[C@H](Cc2c[nH]c3ccccc23)NC(=O)[C@H](CC(=O)O)NC(=O)[C@H](Cc2ccc(O)cc2)NC(=O)[C@H](CN)NC(=O)CSC[C@@H](C(=O)N[C@@H](C)C(N)=O)NC(=O)[C@H]([C@@H](C)O)NC(=O)[C@H](C(C)C)NC1=O [Compound 1158] ({CH2CO}-[Dap]YDWV[Bip][Cit][Orn][dL][Dab][Nle]VTCA-NH2; thioether N-14)	73.1 nM
CC(C)C[C@H]1NC(=O)[C@H](CCCN)NC(=O)[C@H](CCCNC(N)=O)NC(=O)[C@H](Cc2ccc(-c3ccccc3)cc2)NC(=O)[C@H](C(C)C)NC(=O)[C@H](Cc2c[nH]c3ccccc23)NC(=O)[C@H](CC(=O)O)NC(=O)[C@H](Cc2ccc(C(=O)O)cc2)NC(=O)[C@H](Cc2ccc(OCC(=O)O)cc2)NC(=O)CSC[C@@H](C(=O)N[C@@H](C)C(N)=O)NC(=O)[C@H]([C@@H](C)O)NC(=O)[C@H](C(C)C)NC(=O)[C@H](Cc2ccc(O)cc2)NC(=O)[C@H](CCN)NC1=O [Compound 1684] ({CH2CO}-Y(Carboxymethyl)[Phe(4-COOH)]DWV[Bip][Cit][Orn][dL][Dab]YVTCA-NH2; thioether N-14)	120 nM
CC(C)C[C@H]1NC(=O)[C@H](CCCN)NC(=O)[C@H](CCCNC(N)=O)NC(=O)[C@H](Cc2ccc(-c3ccccc3)cc2)NC(=O)[C@H](C(C)C)NC(=O)[C@H](Cc2c[nH]c3ccccc23)NC(=O)[C@H](CC(=O)O)NC(=O)[C@H](Cc2ccc(O)cc2)NC(=O)[C@H](Cc2ccccc2)NC(=O)CSC[C@@H](C(=O)N[C@@H](C)C(N)=O)NC(=O)[C@H]([C@@H](C)O)NC(=O)[C@H](C(C)C)NC(=O)[C@H](CC2CCCCC2)NC(=O)[C@H](CCCNC(=N)N)NC1=O [Compound 1156] ({CH2CO}-FYDWV[Bip][Cit][Orn][dL]R[Cha]VTCA-NH2; thioether N-14)	20.7 nM
CC[C@H](C)[C@@H]1NC(=O)[C@H](Cc2ccc(-c3ccccc3)cc2)NC(=O)[C@H](C(C)C)NC(=O)[C@H](Cc2c[nH]c3ccccc23)NC(=O)[C@H](CC(=O)O)NC(=O)[C@H](Cc2ccc(OCC(=O)O)cc2)NC(=O)[C@H](Cc2ccncc2)NC(=O)CSC[C@@H](C(=O)N[C@@H](C)C(N)=O)NC(=O)[C@H]([C@@H](C)O)NC(=O)[C@H](C(C)C)NC(=O)[C@H](CC2CCCCC2)NC(=O)[C@H](Cc2cnc[nH]2)NC(=O)[C@@H](CC(C)C)NC(=O)[C@H](CCCN)NC1=O [Compound 1608]	32.2 nM
CCCC[C@H]1NC(=O)[C@H](CCCN)NC(=O)[C@H]([C@@H](C)CC)NC(=O)[C@H](Cc2ccc(-c3ccccc3)cc2)NC(=O)[C@H](C(C)C)NC(=O)[C@H](Cc2c[nH]c3ccccc23)NC(=O)[C@H](CC(=O)O)NC(=O)[C@H](Cc2ccc(OCC(=O)O)cc2)NC(=O)[C@H](Cc2ccncc2)NC(=O)CSC[C@@H](C(=O)N[C@@H](C)C(N)=O)NC(=O)[C@H]([C@@H](C)O)NC(=O)[C@H](C(C)C)NC(=O)[C@H](CC2CCCCC2)NC(=O)[C@H](CCN)NC1=O [Compound 1709]	10.4 nM
CC[C@H](C)[C@@H]1NC(=O)[C@H](Cc2ccc(-c3ccccc3)cc2)NC(=O)[C@H](C(C)C)NC(=O)[C@H](Cc2c[nH]c3ccccc23)NC(=O)[C@H](CC(=O)O)NC(=O)[C@H](Cc2ccc(C(=O)O)cc2)NC(=O)[C@H](CN)NC(=O)CSC[C@@H](C(=O)N[C@@H](C)C(N)=O)NC(=O)[C@H]([C@@H](C)O)NC(=O)[C@H](C(C)C)NC(=O)[C@H](CC(C)C)NC(=O)[C@H](CCN)NC(=O)[C@@H](CC(C)C)NC(=O)[C@H](CCCN)NC1=O [Compound 1052] ({CH2CO}-[Dap][Phe(4-COOH)]DWV[Bip]I[Orn][dL][Dab]LVTCA-NH2; thioether N-14)	11.8 nM
C#CCOc1ccc(C[C@@H]2NC(=O)[C@H](CCCNC(=N)N)NC(=O)CSC[C@@H](C(=O)N[C@@H](CCN)C(N)=O)NC(=O)[C@H](CCC(=O)O)NC(=O)[C@H](C(C)C)NC(=O)[C@H](CC3CCCCC3)NC(=O)[C@H](CCN)NC(=O)[C@@H](CC(C)C)NC(=O)[C@H](CCCN)NC(=O)[C@H](Cc3ccc(OCC(=O)O)cc3)NC(=O)[C@H](Cc3ccc(-c4ccccc4)cc3)NC(=O)[C@H](Cc3ccc(OCC(=O)O)cc3)NC(=O)[C@H](Cc3cccc(C)c3)NC(=O)[C@H](CC(=O)O)NC2=O)cc1 [Compound 1815] ({CH2CO}-RY(Propargyl)D[Phe(3-Me)]Y(Carboxymethyl)[Bip]Y(Carboxymethyl)[Orn][dL][Dab][Cha]VEC[Dab]-NH2; thioether N-14)	22.2 nM

Second part, the compound after the results:

IC50	SMILES
20.8 nM	CCC(C)[C@@H]1NC(=O)[C@H](Cc2ccc(-c3ccccc3)cc2)NC(=O)[C@H](C(C)C)NC(=O)[C@H](Cc2c[nH]c3ccccc23)NC(=O)[C@H](CC(=O)O)NC(=O)[C@H](Cc2ccc(OCC(=O)O)cc2)NC(=O)[C@H](CCN)NC(=O)CSC[C@@H](C(=O)N[C@@H](C)C(N)=O)NC(=O)[C@H](C(C)O)NC(=O)[C@H](C(C)C)NC(=O)[C@H](CC(C)C)NC(=O)[C@H](CCN)NC(=O)[C@@H](CC(C)C)NC(=O)[C@H](CCCN)NC1=O (stereo partly drawn) [Compound 2507] ({CH2CO}-[Dab]Y(Carboxymethyl)DWV[Bip][Ile(3ξ)][Orn][dL][Dab]LV[Thr(3ξ)]CA-NH2; thioether N-14)
576 nM	C#CC[C@H](NC(=O)[C@H](CCN)NC(=O)[C@@H]1CSCC(=O)N[C@@H](Cc2ccncc2)C(=O)N[C@@H](Cc2ccc(OCC(=O)O)cc2)C(=O)N[C@@H](CC(=O)O)C(=O)N[C@@H](Cc2cccc(C)c2)C(=O)N[C@@H](Cc2ccc(OCC(=O)O)cc2)C(=O)N[C@@H](Cc2ccc(-c3ccccc3)cc2)C(=O)N[C@@H](Cc2ccc(OCC(=O)O)cc2)C(=O)N[C@@H](CCCN)C(=O)N[C@H](CC(C)C)C(=O)N[C@@H](CCN)C(=O)N[C@@H](CC2CCCCC2)C(=O)N[C@@H](C(C)(C)O)C(=O)N[C@@H](CO)C(=O)N1)C(=O)O [Compound 2317] ({CH2CO}-[4Pal]Y(Carboxymethyl)D[Phe(3-Me)]Y(Carboxymethyl)[Bip]Y(Carboxymethyl)[Orn][dL][Dab][Cha][Val(3-OH)]SC[Dab][Pra]-OH; thioether N-14)
8.5 nM	C#CC[C@H](NC(=O)[C@@H](C)NC(=O)[C@@H]1CSCC(=O)N[C@@H](Cc2c[nH]cn2)C(=O)N[C@@H](Cc2ccc(OCC(=O)O)cc2)C(=O)N[C@@H](CC(=O)O)C(=O)N[C@@H](Cc2c[nH]c3ccccc23)C(=O)N[C@@H](C(C)C)C(=O)N[C@@H](Cc2ccc(-c3ccccc3)cc2)C(=O)N[C@@H](C(C)C)C(=O)N[C@@H](CCCN)C(=O)N[C@H](CC(C)C)C(=O)N[C@@H](CCN)C(=O)N[C@@H](CC2CCCCC2)C(=O)N[C@@H](C(C)(C)O)C(=O)N[C@@H](CO)C(=O)N1)C(N)=O [Compound 2327] ({CH2CO}-HY(Carboxymethyl)DWV[Bip]V[Orn][dL][Dab][Cha][Val(3-OH)]SC[dA][Pra]-NH2; thioether N-14)
12.2 nM	CC(C)C[C@H]1NC(=O)[C@H](CCCN)NC(=O)[C@H](C(C)C)NC(=O)[C@H](Cc2ccc(-c3ccccc3)cc2)NC(=O)[C@H](C(C)C)NC(=O)[C@H](Cc2c[nH]c3ccccc23)NC(=O)[C@H](CC(=O)O)NC(=O)[C@H](Cc2ccc(O)cc2)NC(=O)[C@H](CCCNC(=N)N)NC(=O)CSC[C@@H](C(=O)N[C@@H](C)C(N)=O)NC(=O)[C@H](C(C)O)NC(=O)[C@H](C(C)C)NC(=O)[C@H](CC2CCCCC2)NC(=O)[C@H](CCN)NC1=O (stereo partly drawn) [Compound 2524] ({CH2CO}-RYDWV[Bip]V[Orn][dL][Dab][Cha]V[Thr(3ξ)]CA-NH2; thioether N-14)
16.8 nM	CC(C)C[C@H]1NC(=O)[C@H](CCCN)NC(=O)[C@H](CCC(=O)O)NC(=O)[C@H](Cc2ccc(-c3ccccc3)cc2)NC(=O)[C@H](C(C)C)NC(=O)[C@H](Cc2c[nH]c3ccccc23)NC(=O)[C@H](CC(=O)O)NC(=O)[C@H](Cc2cccnc2)NC(=O)[C@H](Cc2ccc(OCC(=O)O)cc2)NC(=O)CSC[C@@H](C(=O)N[C@@H](C)C(N)=O)NC(=O)[C@H]([C@@H](C)O)NC(=O)[C@H](C(C)C)NC(=O)[C@H](CC2CCCCC2)NC(=O)[C@H](CCN)NC1=O [Compound 2173]
17.6 nM	CC(C)C[C@H]1NC(=O)[C@H](CCCN)NC(=O)[C@H](C(C)C)NC(=O)[C@H](Cc2ccc(-c3ccccc3)cc2)NC(=O)[C@H](C(C)C)NC(=O)[C@H](Cc2c[nH]c3ccccc23)NC(=O)[C@H](CC(=O)O)NC(=O)[C@H](Cc2ccc(OCC(=O)O)cc2)NC(=O)[C@H](C(C)O)NC(=O)CSC[C@@H](C(=O)N[C@@H](CO)C(=O)O)NC(=O)[C@H](C(C)O)NC(=O)[C@H](C(C)C)NC(=O)[C@H](CC2CCCCC2)NC(=O)[C@H](CCN)NC1=O (stereo partly drawn) [Compound 2603] ({CH2CO}-[Thr(3ξ)]Y(Carboxymethyl)DWV[Bip]V[Orn][dL][Dab][Cha]V[Thr(3ξ)]CS-OH; thioether N-14)
42.4 nM	Cc1cccc(C[C@@H]2NC(=O)[C@H](CC(=O)O)NC(=O)[C@H](Cc3ccc(OC(F)(F)F)cc3)NC(=O)[C@H](CCN)NC(=O)CSC[C@@H](C(=O)N[C@@H](CCN)C(N)=O)NC(=O)[C@H](CCC(=O)O)NC(=O)[C@H](C(C)(C)O)NC(=O)[C@H](CC3CCCCC3)NC(=O)[C@H](CCN)NC(=O)[C@@H](CC(C)C)NC(=O)[C@H](CCCN)NC(=O)[C@H](Cc3ccc(OCC(=O)O)cc3)NC(=O)[C@H](Cc3ccc(-c4ccccc4)cc3)NC(=O)[C@H](Cc3ccc(OCC(=O)O)cc3)NC2=O)c1 [Compound 2693] ({CH2CO}-[Dab]Y(CF3)D[Phe(3-Me)]Y(Carboxymethyl)[Bip]Y(Carboxymethyl)[Orn][dL][Dab][Cha][Val(3-OH)]EC[Dab]-NH2; thioether N-14)
